What was measured:
[1] = Water solubility in tap water (one week stirring, chloroform extraction, tin by atomic absorption spectroscopy); type: physicochemical; conditions: products of Examples 1 and 2 based on 100%, 10080 min
Experimental: 1 g of the substance to be tested was mixed in a beaker with 1 liter of tap water by stirring for one week. After settling and decanting, the organotin compounds dissolved in the water were extracted with chloroform. The tin concentrations were determined by atomic absorption spectroscopy.

Bacillus subtilis = assay: Overlay test, zones of inhibition, Bacillus subtilis; type: cell-based; conditions: two days at 37° C.
Proteus vulgaris = assay: Overlay test, zones of inhibition, Proteus vulgaris; type: cell-based; conditions: two days at 37° C.
[2] = Evaporation behavior: thermobalance tests; type: physicochemical; conditions: products of Examples 1 and 2 based on 100%
Experimental: (§1) Weight losses were determined after one week storage in a circulating-air dryer at 65° C. and tests with a thermobalance (onset of weight loss, and weight loss at 350° C.) were performed.
(§2) The exact initial weight of the specimens (about 2 g) in glass Petri dishes (about 10 cm in diameter) is determined and the weight loss after treatment is determined by reweighing.

[3] = Thermal stability, one hour treatment at 180° C. in open glass vessels; type: physicochemical; conditions: tributyltin content not determinable
Experimental: After prior methylation, the content of tributyltin compounds after a one hour treatment at 180° C. in open glass vessels was determined by gas chromatography.

[4] = Evaporation behavior: weight loss after one week storage in a circulating-air dryer at 65° C.; type: physicochemical; conditions: products of Examples 1 and 2 based on 100%
Experimental: as §1, §2

Bacillus mesentericus = assay: Overlay test, zones of inhibition, Bacillus mesentericus; type: cell-based; conditions: two days at 37° C.
[5] = 0.10 wt. % tin (impregnating solution: TBTO 0.25; TBTL, TBTN 0.5; Ex. 1 1.0; Ex. 2 1.1 wt. %)
[6] = 0.16 wt. % tin (impregnating solution: TBTO 0.4; TBTL, TBTN 0.8; Ex. 1 1.65; Ex. 2 1.7 wt. %)
[7] = 0.24 wt. % tin (impregnating solution: TBTO 0.6; TBTL, TBTN 1.2; Ex. 1 2.45; Ex. 2 2.6 wt. %)
[8] = 0.40 wt. % tin (impregnating solution: TBTO 1.0; TBTL, TBTN 2.0; Ex. 1 4.1; Ex. 2 4.3 wt. %)

CCC[CH2][Sn]([CH2]CCC)([CH2]CCC)[O][Sn]([CH2]CCC)([CH2]CCC)[CH2]CCC [TBTO, tri-n-butyltin oxide]
Water solubility [1]: 24.0 mg/liter of water | Zones of inhibition about the specimens, Bacillus subtilis (Bacillus subtilis; [5]): 6 cm^2 | Zones of inhibition about the specimens, Bacillus subtilis (Bacillus subtilis; [6]): 13 cm^2 | Zones of inhibition about the specimens, Bacillus subtilis (Bacillus subtilis; [7]): 18 cm^2 | Zones of inhibition about the specimens, Bacillus subtilis (Bacillus subtilis; [8]): 20 cm^2 | Zones of inhibition about the specimens, Proteus vulgaris (Proteus vulgaris; [5]): 3 cm^2 | Zones of inhibition about the specimens, Proteus vulgaris (Proteus vulgaris; [6]): 6 cm^2 | Zones of inhibition about the specimens, Proteus vulgaris (Proteus vulgaris; [7]): 9 cm^2 | Zones of inhibition about the specimens, Proteus vulgaris (Proteus vulgaris; [8]): 12 cm^2 | Thermobalance: Weight loss at 350° C. ([2]; 350° C.): 80% | Thermobalance: Onset of weight loss [2]: 75 °C | weight loss (1 hour at 180° C.) [3]: 98% | Weight loss after 7 days at 65° C. [4]: 27.3% | Zones of inhibition about the specimens, Bacillus mesentericus (Bacillus mesentericus; [5]): 5 cm^2 | Zones of inhibition about the specimens, Bacillus mesentericus (Bacillus mesentericus; [6]): 8 cm^2 | Zones of inhibition about the specimens, Bacillus mesentericus (Bacillus mesentericus; [7]): 14 cm^2 | Zones of inhibition about the specimens, Bacillus mesentericus (Bacillus mesentericus; [8]): 20 cm^2
